Source: ChEMBL document CHEMBL2429719, “Indolo[3,2-a]carbazoles from a deep-water sponge of the genus Asteropus” (2013)
In brackets after ≈: the same amount, converted by molar mass. Activity calls are given as the source filed them. No cut-off for these calls is given here.

Legend:
NCI/ADR-RES = experiment: Cytotoxicity against human NCI/ADR-RES cells at 5 ug/ml after 2 to 3 days by MTT assay; assay type: functional, cell-based
PANC-1 = experiment: Cytotoxicity against human PANC1 cells at 5 ug/ml after 2 to 3 days by MTT assay; assay type: functional, cell-based
Staphylococcus aureus [1] = experiment: Antimicrobial activity against methicillin-resistant Staphylococcus aureus up to 50 ug/ml by broth microdilution method; assay type: functional, organism-based
Candida albicans [2] = experiment: Antimicrobial activity against Candida albicans up to 50 ug/ml by broth microdilution method; assay type: functional, organism-based
Staphylococcus aureus [3] = experiment: Antimicrobial activity against methicillin-resistant Staphylococcus aureus by broth microdilution method; assay type: functional
Candida albicans [4] = experiment: Antimicrobial activity against Candida albicans by broth microdilution method; assay type: functional

For O=S(=O)(O)Oc1cc2[nH]c3ccc4c5ccc(Br)cc5[nH]c4c3c2cc1O, which Activity (NCI/ADR-RES) is on record?
Its Activity is “inactive”.

What about the Activity (PANC-1) of the same compound?
The Activity was “inactive”.

What about the “growth inhibition (GI)” value (Staphylococcus aureus [1]) of the same compound?
Its value is “inactive”.

What about the “growth inhibition (GI)” value (Candida albicans [2]) of the same compound?
Its value is “inactive”.

What does the source list for Oc1cc2[nH]c3ccc4c5ccc(Br)cc5[nH]c4c3c2cc1O?
Activity (NCI/ADR-RES): inactive; Activity (PANC-1): inactive; MIC (Staphylococcus aureus [3]): 50 µg/mL (≈ 136 µM); MIC (Candida albicans [4]): 25 µg/mL (≈ 68.1 µM)
